Read-outs that look alike come from different tables or passages of the source.
Key:
[1] = Screening of CDs and CD derivatives for ability to dissolve cholesterol in water (HPLC); format: physicochemical; settings: for Concentrations of Cholesterol in CDs Solution: 5 days at ambient, ND = not detectable
Method: Purpose: To determine the level of cholesterol that can be dissolved in water when 10 different CDs and their derivatives were added at three concentrations.
All CD solutions were prepared with starting 20% (w/v) solutions by accurately adding about 800 mg CDs in 4 milliliter water, 1% and 10% were diluted from this 20% solution to 2 mL for each sample preparation experiment.
Cholesterol was added accurately to all CD water solutions at about 40 mg/mL or about 80 mg per 2 mL. This amount of cholesterol was enough to fully saturate the CD solutions with white settlements or floating or both. All samples were conditioned at ambient by shaking using a rotator for 5 days.
After the equilibration with shaking for 5 days at ambient, the clear or semi-clear portion was filtered with 0.2 μm filter. 50 μL of the filtered solution was diluted with 450 μL methanol (10×) for HPLC analysis. NOVAPAK phenyl column (7.6 cm by 3.9 mm I.D.) was used with a mobile phase of acetonitrile: water (70:30) at a flow rate of 0.5 ml/min and detection at UV at 210 nm.

[2] = cited from earlier work; for Ability to form soluble complex with cholesterol in aqueous solution (in words): 37° C., CDs 1.0 × 10^−2 M; for Absorbance (600 nm), increase due to cholesterol dissolved by CDs: aqueous solution at 37° C., concentration of CDs 1.0 × 10^−2 M
[3] = tested on: Patients with Primary or Recurrent Pterygium
Method: A Phase 2a Multicenter, Randomized, Vehicle-Controlled, Dose Escalating Study was carried out to evaluate the Safety, Efficacy and Pharmacokinetics of Nintedanib Ophthalmic Solution in Patients with Primary or Recurrent Pterygium. The multicenter, randomized, double-masked, vehicle-controlled, parallel study was conducted with 28 days three times a day (TID) repeat ocular dosing of vehicle and 0.2% nintedanib, followed by 5-month post-dosing observation.
Pterygium patients often have meibomian gland atrophy and clinical signs and symptoms of MGD, including ocular pain, itchy, foreign body sensation, redness, sensitivity to light and […]. In the Phase II clinical trial, pterygia patients were asked 15 questions on ocular symptom, vision-related functioning and quality of life via Pterygium Symptom and Life Quality (PSLQ) questionnaires.
PSLQ analyses were performed for 4 average category scores; Overall, Ocular Symptoms, Vision-Related Functioning, and Quality of Life Impact.

[4] = tested on: pterygium patients with dry eye or with no dry eye; assay: PSLQ ocular symptom score, further analysis by dry eye condition; format: in vivo, human; settings: any timepoint
Description: These ocular symptoms are often observed in MGD patients. Scores of these symptoms were graded by patients as part of PSLQ questionnaires. (1) Dry eye patients vs. Non-dry eye patients (based upon patients' medical history) with the combined nintedanib-treated and vehicle-treated groups. […] The pterygium patients with dry eye condition was compared with pterygium patients with no dry eye condition. In this comparison, all pterygium patients with dry eye condition in the drug and vehicle treated group was combined and the same was done for pterygium patients with no dry eye condition. Number of data points for each group were N=17 for dry eye and N=18 for no dry eye. […] Pterygium patients with dry eye condition had higher baseline score and had bigger reduction from baseline of ocular symptom score during treatment period when compared to pterygium patients with no dry eye condition. (2) Nintedanib vs. Vehicle for dry eye patients (based upon patients' medical history).

Ability to dissolve cholesterol in water (in words) [1]	Concentrations of Cholesterol in CDs Solution ([1]; CD 1% (w/v) in water)	Molecule	Ability to form soluble complex with cholesterol in aqueous solution (in words) [2]	Absorbance (600 nm), increase due to cholesterol dissolved by CDs [2]	also measured
about half lower	30000 ng/mL	OC[C@H]1O[C@H](O[C@H]2[C@H](O)[C@@H](O)[C@@H](OC[C@H]3O[C@@H]4O[C@H]5[C@H](O)[C@@H](O)[C@@H](O[C@H]6[C@H](O)[C@@H](O)[C@@H](O[C@H]7[C@H](O)[C@@H](O)[C@@H](O[C@H]8[C@H](O)[C@@H](O)[C@@H](O[C@H]9[C@H](O)[C@@H](O)[C@@H](O[C@H]%10[C@H](O)[C@@H](O)[C@@H](O[C@H]3[C@H](O)[C@H]4O)O[C@@H]%10CO)O[C@@H]9CO)O[C@@H]8CO)O[C@@H]7CO)O[C@@H]6CO)O[C@@H]5CO)O[C@@H]2CO)[C@H](O)[C@@H](O)[C@@H]1O [6-AM-BCD, 6-O-alpha-maltosyl-beta-cyclodextrin]			
		OC[C@H]1O[C@@H]2O[C@H]3[C@H](O)[C@@H](O)[C@@H](O[C@H]4[C@H](O)[C@@H](O)[C@@H](O[C@H]5[C@H](O)[C@@H](O)[C@@H](O[C@H]6[C@H](O)[C@@H](O)[C@@H](O[C@H]7[C@H](O)[C@@H](O)[C@@H](O[C@H]8[C@H](O)[C@@H](O)[C@@H](O[C@H]1[C@H](O)[C@H]2O)O[C@@H]8CO)O[C@@H]7CO)O[C@@H]6CO)O[C@@H]5CO)O[C@@H]4CO)O[C@@H]3CO [BCD, beta-cyclodextrin]	do not form soluble complexes with cholesterol		
		OC[C@H]1O[C@@H]2O[C@H]3[C@H](O)[C@@H](O)[C@@H](O[C@H]4[C@H](O)[C@@H](O)[C@@H](O[C@H]5[C@H](O)[C@@H](O)[C@@H](O[C@H]6[C@H](O)[C@@H](O)[C@@H](O[C@H]7[C@H](O)[C@@H](O)[C@@H](O[C@H]8[C@H](O)[C@@H](O)[C@@H](O[C@H]9[C@H](O)[C@@H](O)[C@@H](O[C@H]1[C@H](O)[C@H]2O)O[C@@H]9CO)O[C@@H]8CO)O[C@@H]7CO)O[C@@H]6CO)O[C@@H]5CO)O[C@@H]4CO)O[C@@H]3CO [GCD, gamma-cyclodextrin]	do not form soluble complexes with cholesterol	0	
		OC[C@H]1O[C@@H]2O[C@H]3[C@H](O)[C@@H](O)[C@@H](O[C@H]4[C@H](O)[C@@H](O)[C@@H](O[C@H]5[C@H](O)[C@@H](O)[C@@H](O[C@H]6[C@H](O)[C@@H](O)[C@@H](O[C@H]7[C@H](O)[C@@H](O)[C@@H](O[C@H]1[C@H](O)[C@H]2O)O[C@@H]7CO)O[C@@H]6CO)O[C@@H]5CO)O[C@@H]4CO)O[C@@H]3CO [ACD, alpha-cyclodextrin]	do not form soluble complexes with cholesterol	0	
	2000 ng/mL	sulfobutylated beta-cyclodextrin [SBE-BCD]			Concentrations of Cholesterol in CDs Solution ([1]; CD 10% (w/v) in water): 30000 ng/mL; Concentrations of Cholesterol in CDs Solution ([1]; CD 20% (w/v) in water): 150000 ng/mL
the best		COC[C@H]1O[C@@H]2O[C@H]3[C@H](O)[C@@H](OC)[C@@H](O[C@H]4[C@H](O)[C@@H](OC)[C@@H](O[C@H]5[C@H](O)[C@@H](OC)[C@@H](O[C@H]6[C@H](O)[C@@H](OC)[C@@H](O[C@H]7[C@H](O)[C@@H](OC)[C@@H](O[C@H]8[C@H](O)[C@@H](OC)[C@@H](O[C@H]1[C@H](O)[C@H]2OC)O[C@@H]8COC)O[C@@H]7COC)O[C@@H]6COC)O[C@@H]5COC)O[C@@H]4COC)O[C@@H]3COC [DM-BCD, heptakis (2,6-di-O-methyl)-beta-cyclodextrin]		0.336	
extremely low levels		2-hydroxypropyl-gamma-cyclodextrin [HP-GCD, reference compound]			Concentrations of Cholesterol in CDs Solution ([1]; CD 10% (w/v) in water): 3000 ng/mL; Concentrations of Cholesterol in CDs Solution ([1]; CD 20% (w/v) in water): 11000 ng/mL
the best	150000 ng/mL	random methyl-beta-cyclodextrin [M-BCD]			
		COC(=O)c1ccc2c(c1)NC(=O)/C2=C(\Nc1ccc(N(C)C(=O)CN2CCN(C)CC2)cc1)c1ccccc1 [Nintedanib 0.2%, nintedanib]			PSLQ ocular symptom score, Nintedanib 0.2% vs Vehicle (in words) [4]: no statistically significant differences

Molecule	Ability to dissolve cholesterol in water (in words) [1]	Concentrations of Cholesterol in CDs Solution ([1]; CD 1% (w/v) in water)	Ability to form soluble complex with cholesterol in aqueous solution (in words) [2]	Absorbance (600 nm), increase due to cholesterol dissolved by CDs [2]	also measured
2-Hydroxypropyl-beta-cyclodextrin [2-HP-β-CD]	substantial ability to dissolve cholesterol	10000 ng/mL	weak ability	0.01	PSLQ scores compared to the baseline (in words) ([3]; 2-HP-β-CD-treated group): significant improvements; PSLQ Average Vision-Related Functioning Score, Mean ([3]; Baseline, N = 23, SD 0.80, Modified Intent-to-Treat Population): 0.57; PSLQ Average Vision-Related Functioning Score, Change from Baseline, Mean ([3]; Week 2, N = 23, SD 0.65, p-value 0.067 (one sample t-test)): −0.27; PSLQ Average Vision-Related Functioning Score, Change from Baseline, Mean ([3]; Week 4, N = 23, SD 0.65, p-value 0.003): −0.48; PSLQ Average Vision-Related Functioning Score, Change from Baseline, Mean ([3]; Week 8, N = 23, SD 0.62, p-value 0.004): −0.43; PSLQ Average Vision-Related Functioning Score, Change from Baseline, Mean ([3]; Week 16, N = 23, SD 0.56, p-value 0.08): −0.23; PSLQ Average Vision-Related Functioning Score, Change from Baseline, Mean ([3]; Week 24, N = 23, SD 1.1, p-value 0.617): −0.11; Concentrations of Cholesterol in CDs Solution ([1]; CD 10% (w/v) in water): 820000 ng/mL
2-hydroxypropyl-alpha-cyclodextrin [HP-ACD, reference compound]	no detectable cholesterol dissolving activity				
